# Measured values from PubChem BioAssay (NCI).
# “And” between values parts separate entries of the source, which are not always exact repeats. Equal entries are not always repeated.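 48-hour exposure; five concentrations; linearly interpolated endpoints. GI50 is the concentration that inhibits growth by half. TGI: concentration producing complete growth inhibition.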
# Tests used:
# Assay in all cases: NCI tumour cell line growth inhibition, 48 h
# HCT-15 colon = system: HCT-15 colon
# OVCAR-4 ovarian = system: OVCAR-4 ovarian
# UACC-257 melanoma = system: UACC-257 melanoma
# SR leukemia = system: SR leukemia
# HCT-116 colon = system: HCT-116 colon
# OVCAR-5 ovarian = system: OVCAR-5 ovarian
# CAKI-1 renal = system: CAKI-1 renal
# SK-OV-3 ovarian = system: SK-OV-3 ovarian
# TK-10 renal = system: TK-10 renal
# EKVX NSCLC = system: EKVX NSCLC
# A549 NSCLC = system: A549 NSCLC
# MALME-3M melanoma = system: MALME-3M melanoma
# U251 CNS = system: U251 CNS
# LOX IMVI melanoma = system: LOX IMVI melanoma
# RPMI-8226 leukemia = system: RPMI-8226 leukemia
# MCF7 breast = system: MCF7 breast
# 786-0 renal = system: 786-0 renal
# MOLT-4 leukemia = system: MOLT-4 leukemia
# BT-549 breast = system: BT-549 breast
# DU-145 prostate = system: DU-145 prostate
# HCC-2998 colon = system: HCC-2998 colon
# UO-31 renal = system: UO-31 renal
# SK-MEL-2 melanoma = system: SK-MEL-2 melanoma
# HS 578T breast = system: HS 578T breast
# MDA-MB-468 breast = system: MDA-MB-468 breast
# UACC-62 melanoma = system: UACC-62 melanoma
# SF-539 CNS = system: SF-539 CNS
# SN12C renal = system: SN12C renal
# MDA-MB-231 breast = system: MDA-MB-231 breast
# NCI/ADR-RES ovarian = system: NCI/ADR-RES ovarian
# T-47D breast = system: T-47D breast
# OVCAR-8 ovarian = system: OVCAR-8 ovarian
# HOP-92 NSCLC = system: HOP-92 NSCLC
# MDA-MB-435 = system: MDA-MB-435
# NCI-H226 lung = system: NCI-H226 lung
# NCI-H460 lung = system: NCI-H460 lung
# SF-295 CNS = system: SF-295 CNS
# NCI-H522 lung = system: NCI-H522 lung
# KM12 colon = system: KM12 colon
# SF-268 CNS = system: SF-268 CNS
# ACHN renal = system: ACHN renal
# RXF 393 renal = system: RXF 393 renal
# SNB-75 CNS = system: SNB-75 CNS
# M14 melanoma = system: M14 melanoma
# SK-MEL-5 melanoma = system: SK-MEL-5 melanoma
# PC-3 prostate = system: PC-3 prostate
# CCRF-CEM leukemia = system: CCRF-CEM leukemia
# SW-620 colon = system: SW-620 colon
# HOP-62 NSCLC = system: HOP-62 NSCLC
# NCI-H23 lung = system: NCI-H23 lung
# K-562 leukemia = system: K-562 leukemia
# HL-60(TB) leukemia = system: HL-60(TB) leukemia
# COLO 205 colon = system: COLO 205 colon
# A498 renal = system: A498 renal
# SNB-19 CNS = system: SNB-19 CNS
# HT29 colon = system: HT29 colon
# SK-MEL-28 melanoma = system: SK-MEL-28 melanoma
# IGROV1 ovarian = system: IGROV1 ovarian
# OVCAR-3 ovarian = system: OVCAR-3 ovarian
smiles,measurement,setting,value
COc1cc2cc(C(=O)N3C[C@@H](CCl)c4c3cc(OC(=O)N(CCC(=O)N3CCN(C)CC3)[C@H]3CCSSC3)c3ccccc43)[nH]c2c(OC)c1OC,GI50,HCT-15 colon,271 nM and 260 nM
same,TGI,HCT-15 colon,1110 nM and 1430 nM
same,GI50,OVCAR-4 ovarian,513 nM and 464 nM
same,TGI,OVCAR-4 ovarian,1270 nM and 4990 nM
same,GI50,UACC-257 melanoma,475 nM and 630 nM
same,TGI,UACC-257 melanoma,1150 nM and 3710 nM
same,GI50,SR leukemia,56.7 nM and 34.2 nM
same,GI50,HCT-116 colon,389 nM and 158 nM
same,TGI,HCT-116 colon,3620 nM and 558 nM
same,GI50,OVCAR-5 ovarian,560 nM
same,TGI,OVCAR-5 ovarian,1750 nM
same,GI50,CAKI-1 renal,272 nM
same,TGI,CAKI-1 renal,4490 nM
same,GI50,SK-OV-3 ovarian,313 nM and 262 nM
same,TGI,SK-OV-3 ovarian,1310 nM and 714 nM
same,GI50,TK-10 renal,3370 nM
same,TGI,TK-10 renal,11000 nM
same,GI50,EKVX NSCLC,365 nM and 315 nM
same,TGI,EKVX NSCLC,1040 nM and 1900 nM
same,GI50,A549 NSCLC,393 nM
same,TGI,A549 NSCLC,1630 nM
same,GI50,MALME-3M melanoma,405 nM and 280 nM
same,TGI,MALME-3M melanoma,796 nM and 744 nM
same,GI50,U251 CNS,299 nM and 164 nM
same,TGI,U251 CNS,2800 nM and 423 nM
same,GI50,LOX IMVI melanoma,295 nM and 208 nM
same,TGI,LOX IMVI melanoma,781 nM and 891 nM
same,GI50,RPMI-8226 leukemia,477 nM and 222 nM
same,TGI,RPMI-8226 leukemia,1850 nM and 1360 nM
same,GI50,MCF7 breast,55.7 nM and 35.3 nM
same,TGI,MCF7 breast,652 nM and 1100 nM
same,GI50,786-0 renal,368 nM
same,TGI,786-0 renal,1340 nM
same,GI50,MOLT-4 leukemia,113 nM and 89.7 nM
same,GI50,BT-549 breast,361 nM and 228 nM
same,TGI,BT-549 breast,799 nM and 989 nM
same,GI50,DU-145 prostate,113 nM and 58.5 nM
same,TGI,DU-145 prostate,3390 nM and 1490 nM
same,GI50,HCC-2998 colon,154 nM and 158 nM
same,TGI,HCC-2998 colon,579 nM and 331 nM
same,GI50,UO-31 renal,333 nM and 221 nM
same,TGI,UO-31 renal,948 nM and 545 nM
same,GI50,SK-MEL-2 melanoma,417 nM and 214 nM
same,TGI,SK-MEL-2 melanoma,777 nM and 381 nM
same,GI50,HS 578T breast,689 nM and 1410 nM
same,TGI,HS 578T breast,3920 nM and 6080 nM
same,GI50,MDA-MB-468 breast,167 nM
same,TGI,MDA-MB-468 breast,389 nM
same,GI50,UACC-62 melanoma,259 nM and 271 nM
same,TGI,UACC-62 melanoma,587 nM and 1220 nM
same,GI50,SF-539 CNS,284 nM and 167 nM
same,TGI,SF-539 CNS,642 nM and 409 nM
same,GI50,SN12C renal,241 nM and 286 nM
same,GI50,MDA-MB-231 breast,516 nM and 579 nM
same,TGI,MDA-MB-231 breast,1140 nM and 8190 nM
same,GI50,NCI/ADR-RES ovarian,292 nM
same,TGI,NCI/ADR-RES ovarian,940 nM
same,GI50,T-47D breast,631 nM and 696 nM
same,TGI,T-47D breast,25000 nM and 7830 nM
same,GI50,OVCAR-8 ovarian,275 nM and 186 nM
same,GI50,HOP-92 NSCLC,657 nM and 346 nM
same,TGI,HOP-92 NSCLC,2130 nM and 1830 nM
same,GI50,MDA-MB-435,404 nM and 213 nM
same,TGI,MDA-MB-435,788 nM and 529 nM
same,GI50,NCI-H226 lung,1570 nM and 435 nM
same,TGI,NCI-H226 lung,25000 nM and 4470 nM
same,GI50,NCI-H460 lung,99.6 nM and 55.7 nM
same,TGI,NCI-H460 lung,2580 nM and 341 nM
same,GI50,SF-295 CNS,113 nM and 145 nM
same,TGI,SF-295 CNS,1750 nM and 545 nM
same,GI50,NCI-H522 lung,433 nM and 263 nM
same,TGI,NCI-H522 lung,1110 nM and 979 nM
same,GI50,KM12 colon,535 nM and 268 nM
same,TGI,KM12 colon,1640 nM and 1050 nM
same,GI50,SF-268 CNS,403 nM and 187 nM
same,GI50,ACHN renal,83.1 nM
same,TGI,ACHN renal,571 nM
same,GI50,RXF 393 renal,322 nM and 149 nM
same,TGI,RXF 393 renal,724 nM and 297 nM
same,GI50,SNB-75 CNS,388 nM and 181 nM
same,TGI,SNB-75 CNS,1080 nM and 905 nM
same,GI50,M14 melanoma,317 nM and 192 nM
same,TGI,M14 melanoma,824 nM and 545 nM
same,GI50,SK-MEL-5 melanoma,327 nM
same,TGI,SK-MEL-5 melanoma,656 nM
same,GI50,PC-3 prostate,480 nM and 722 nM
same,TGI,PC-3 prostate,6150 nM and 6130 nM
same,GI50,CCRF-CEM leukemia,559 nM and 219 nM
same,GI50,SW-620 colon,399 nM and 221 nM
same,TGI,SW-620 colon,1900 nM and 911 nM
same,GI50,HOP-62 NSCLC,166 nM and 110 nM
same,TGI,HOP-62 NSCLC,1280 nM and 780 nM
same,GI50,NCI-H23 lung,75.9 nM and 55.3 nM
same,TGI,NCI-H23 lung,358 nM and 254 nM
same,GI50,K-562 leukemia,604 nM and 162 nM
same,TGI,K-562 leukemia,25000 nM and > 100000 nM
same,GI50,HL-60(TB) leukemia,325 nM and 119 nM
same,TGI,HL-60(TB) leukemia,2790 nM and 952 nM
same,GI50,COLO 205 colon,354 nM and 342 nM
same,TGI,COLO 205 colon,837 nM and 1510 nM
same,GI50,A498 renal,251 nM
same,TGI,A498 renal,541 nM
same,GI50,SNB-19 CNS,258 nM and 252 nM
same,GI50,HT29 colon,474 nM and 270 nM
same,TGI,HT29 colon,1730 nM and 1050 nM
same,GI50,SK-MEL-28 melanoma,413 nM and 293 nM
same,TGI,SK-MEL-28 melanoma,846 nM and 826 nM
same,GI50,IGROV1 ovarian,436 nM and 501 nM
same,GI50,OVCAR-3 ovarian,236 nM
same,TGI,OVCAR-3 ovarian,581 nM
